From patent US10758534B2 (Vertex Pharmaceuticals Incorporated, priority 2014, dated 2020)

Target: T1, F508del (Homo sapiens, UniProt P13569, DEL508-508)
T1 construct: expressed in transfected cells
Assay: Protocol 2: FRET membrane potential optical assay (VIPR), identification of correction compounds
Format: cell-based
Conditions: Table 3; compounds of Table 1 as modulators of CFTR activity; protocol not stated
Summary of the method: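 NIH3T3 mouse fibroblasts stably expressing F508del-CFTR incubated with compound 16 h at 37 °C in serum-free medium, then loaded with CC2-DMPE/DiSBAC2(3) FRET dyes. Channel activated with 10 μM forskolin plus 20 μM genistein in Cl⁻-free (gluconate) bath; depolarisation from Cl⁻ efflux read on VIPR II.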

T1 sequence (P13569 with tags, fused parts or gaps DEL508-508): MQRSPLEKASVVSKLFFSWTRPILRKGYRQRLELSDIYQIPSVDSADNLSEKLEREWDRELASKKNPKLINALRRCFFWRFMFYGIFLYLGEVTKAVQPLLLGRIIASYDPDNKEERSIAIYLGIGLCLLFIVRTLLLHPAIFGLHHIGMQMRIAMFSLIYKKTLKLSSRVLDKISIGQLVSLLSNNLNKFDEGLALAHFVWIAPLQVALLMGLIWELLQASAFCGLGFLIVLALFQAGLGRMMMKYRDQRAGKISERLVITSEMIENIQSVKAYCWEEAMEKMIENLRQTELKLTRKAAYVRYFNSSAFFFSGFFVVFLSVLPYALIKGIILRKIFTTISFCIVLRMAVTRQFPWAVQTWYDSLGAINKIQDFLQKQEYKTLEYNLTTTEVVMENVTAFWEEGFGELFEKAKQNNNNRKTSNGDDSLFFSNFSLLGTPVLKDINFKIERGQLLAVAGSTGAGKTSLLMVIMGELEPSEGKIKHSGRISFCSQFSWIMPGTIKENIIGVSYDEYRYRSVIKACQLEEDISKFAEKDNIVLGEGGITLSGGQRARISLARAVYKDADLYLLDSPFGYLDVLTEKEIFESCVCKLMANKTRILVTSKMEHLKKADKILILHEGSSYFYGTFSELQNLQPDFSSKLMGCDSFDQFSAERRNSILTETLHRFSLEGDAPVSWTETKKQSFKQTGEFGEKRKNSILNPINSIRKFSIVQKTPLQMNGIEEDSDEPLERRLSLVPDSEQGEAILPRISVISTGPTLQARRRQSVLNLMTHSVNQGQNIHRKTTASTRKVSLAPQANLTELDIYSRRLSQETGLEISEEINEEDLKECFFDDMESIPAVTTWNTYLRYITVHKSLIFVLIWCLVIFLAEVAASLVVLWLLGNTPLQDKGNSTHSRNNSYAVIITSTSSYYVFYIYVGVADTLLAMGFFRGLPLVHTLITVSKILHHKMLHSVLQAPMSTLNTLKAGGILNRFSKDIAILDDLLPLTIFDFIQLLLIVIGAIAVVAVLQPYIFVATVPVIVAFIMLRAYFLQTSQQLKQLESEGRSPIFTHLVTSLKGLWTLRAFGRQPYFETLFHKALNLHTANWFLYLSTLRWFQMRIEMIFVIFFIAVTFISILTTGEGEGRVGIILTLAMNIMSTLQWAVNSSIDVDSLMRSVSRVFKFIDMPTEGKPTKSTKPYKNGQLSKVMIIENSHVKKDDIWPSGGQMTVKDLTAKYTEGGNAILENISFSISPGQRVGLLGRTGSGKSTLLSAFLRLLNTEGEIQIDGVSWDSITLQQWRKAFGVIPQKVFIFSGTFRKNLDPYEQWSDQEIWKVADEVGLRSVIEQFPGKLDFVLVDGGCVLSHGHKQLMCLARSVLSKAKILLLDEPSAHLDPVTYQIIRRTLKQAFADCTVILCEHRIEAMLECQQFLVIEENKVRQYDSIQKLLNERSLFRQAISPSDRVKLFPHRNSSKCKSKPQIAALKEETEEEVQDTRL

| SMILES | EC30 |
| --- | --- |
| Cc1ccc(-c2nc3c(cc2C(=O)NS(=O)(=O)c2cccc(N)n2)CCCC3(C)C)cc1 [Compound 444, N-[(6-amino-2-pyridyl)sulfonyl]-8,8-dimethyl-2-(p-tolyl)-6,7-dihydro-5H-quinoline-3-carboxamide] | ++ (“++” means between 3 uM and 10 uM) |
| CCOc1ccc(-c2ccc(C(=O)NS(=O)(=O)c3ccn[nH]3)c(N3CCC(C)CC3)n2)cc1 [Compound 445, 6-(4-ethoxyphenyl)-2-(4-methyl-1-piperidyl)-N-(1H-pyrazol-5-ylsulfonyl)pyridine-3-carboxamide] | + (“+” means greater than 10 uM) |
| CC(C)Oc1ccc(-c2ccc(C(=O)NS(=O)(=O)c3ccn[nH]3)c(N3C[C@H](C)C[C@H](C)C3)n2)cn1 [Compound 446, 2-[(3R,5S)-3,5-dimethyl-1-piperidyl]-6-(6-isopropoxy-3-pyridyl)-N-(1H-pyrazol-5-ylsulfonyl)pyridine-3-carboxamide] | +++ (“+++” means <3 uM) |
| CC(C)COc1cc(F)cc(-c2ccc(C(=O)NS(=O)(=O)c3cccc(N)n3)c(N3CCC[C@@H]3c3ccccc3)n2)c1 [Compound 447, N-[(6-amino-2-pyridyl)sulfonyl]-6-(3-fluoro-5-isobutoxy-phenyl)-2-[(2R)-2-phenylpyrrolidin-1-yl]pyridine-3-carboxamide] | +++ (“+++” means <3 uM) |
| Cc1cc(C)c(CN2C(C(=O)NS(=O)(=O)c3ccc(C)c(N)c3)c3ccccc3C2(C)C)c(C)c1 (centres unmarked) [Compound 448, N-(3-amino-4-methyl-phenyl)sulfonyl-3,3-dimethyl-2-[(2,4,6-trimethylphenyl)methyl]isoindoline-1-carboxamide] | +++ (“+++” means <3 uM) |
| COc1ncc(-c2ccc(C(=O)NS(=O)(=O)c3cccc(N)n3)c(Oc3c(C)cc(C)cc3C)n2)cn1 [Compound 449, N-[(6-amino-2-pyridyl)sulfonyl]-6-(2-methoxypyrimidin-5-yl)-2-(2,4,6-trimethylphenoxy)pyridine-3-carboxamide] | + (“+” means greater than 10 uM) |
| Cc1cc(C)c(Oc2nc(-c3cccc(C)c3O)ccc2C(=O)NS(=O)(=O)c2cccc(N)n2)c(C)c1 [Compound 450, N-[(6-amino-2-pyridyl)sulfonyl]-6-(2-hydroxy-3-methyl-phenyl)-2-(2,4,6-trimethylphenoxy)pyridine-3-carboxamide] | +++ (“+++” means <3 uM) |
| Cc1cc(C)c(Oc2nc(-c3cccc4nn(C)cc34)ccc2C(=O)NS(=O)(=O)c2cccc(N)n2)c(C)c1 [Compound 451, N-[(6-amino-2-pyridyl)sulfonyl]-6-(2-methylindazol-4-yl)-2-(2,4,6-trimethylphenoxy)pyridine-3-carboxamide] | ++ (“++” means between 3 uM and 10 uM) |
| CC(C)COc1cc(F)cc(-c2ccc(C(=O)NS(=O)(=O)c3cccc(N)n3)c(OC3CCC(C)C3)n2)c1 (centres unmarked) [Compound 452, N-[(6-amino-2-pyridyl)sulfonyl]-6-(3-fluoro-5-isobutoxy-phenyl)-2-(3-methylcyclopentoxy)pyridine-3-carboxamide] | +++ (“+++” means <3 uM) |
| CC(C)COc1cc(F)cc(-c2ccc(C(=O)NS(=O)(=O)c3cccc(N)n3)c(N3CC=CC3)n2)c1 [Compound 453, N-[(6-amino-2-pyridyl)sulfonyl]-2-(2,5-dihydropyrrol-1-yl)-6-(3-fluoro-5-isobutoxy-phenyl)pyridine-3-carboxamide] | +++ (“+++” means <3 uM) |
| C[C@@H]1CC[C@H](C)N1c1nc(-c2ccc(OCC3(C)CC3)nc2)ccc1C(=O)NS(=O)(=O)c1cccc(N)n1 [Compound 454, N-[(6-amino-2-pyridyl)sulfonyl]-2-[(2S,5R)-2,5-dimethylpyrrolidin-1-yl]-6-[6-[(1-methylcyclopropyl)methoxy]-3-pyridyl]pyridine-3-carboxamide] | +++ (“+++” means <3 uM) |
| CCOc1ccc(-c2nc(N3CC(C)CC3(C)C)c(C(=O)NS(=O)(=O)c3cccc(N)n3)cc2C)cc1 (centres unmarked) [Compound 455, N-[(6-amino-2-pyridyl)sulfonyl]-6-(4-ethoxyphenyl)-5-methyl-2-(2,2,4-trimethylpyrrolidin-1-yl)pyridine-3-carboxamide] | +++ (“+++” means <3 uM) |
| Cc1ccc(-c2ccc(C(=O)NS(=O)(=O)c3cccc(N)n3)c(N3CC(C)CC3(C)C)n2)cc1 (centres unmarked) [Compound 456, N-[(6-amino-2-pyridyl)sulfonyl]-6-(p-tolyl)-2-(2,2,4-trimethylpyrrolidin-1-yl)pyridine-3-carboxamide] | +++ (“+++” means <3 uM) |
| Cc1cc(C)c(Oc2nc(-c3cc(C(F)(F)F)nn3C)ccc2C(=O)NS(=O)(=O)c2cccc(N)n2)c(C)c1 [Compound 457, N-[(6-amino-2-pyridyl)sulfonyl]-6-[2-methyl-5-(trifluoromethyl)pyrazol-3-yl]-2-(2,4,6-trimethylphenoxy)pyridine-3-carboxamide] | +++ (“+++” means <3 uM) |
| CC(C)COc1cc(F)cc(-c2ccc(C(=O)NS(=O)(=O)c3cccc(N)n3)c(N3[C@@H](C)CC[C@@H]3C)n2)c1 [Compound 458, N-[(6-amino-2-pyridyl)sulfonyl]-2-[(2S,5S)-2,5-dimethylpyrrolidin-1-yl]-6-(3-fluoro-5-isobutoxy-phenyl)pyridine-3-carboxamide] | +++ (“+++” means <3 uM) |
| C[C@@H]1CC[C@H](C)N1c1nc(-c2ccc(Cl)cc2)ccc1C(=O)NS(=O)(=O)c1cccc(N)n1 [Compound 459, N-[(6-amino-2-pyridyl)sulfonyl]-6-(4-chlorophenyl)-2-[(2S,5R)-2,5-dimethylpyrrolidin-1-yl]pyridine-3-carboxamide] | +++ (“+++” means <3 uM) |
| Cc1ccnc(C)c1Oc1nc(C(C)(C)C)ccc1C(=O)NS(=O)(=O)c1cccc(N)n1 [Compound 460, N-[(6-amino-2-pyridyl)sulfonyl]-6-tert-butyl-2-[(2,4-dimethyl-3-pyridyl)oxy]pyridine-3-carboxamide] | ++ (“++” means between 3 uM and 10 uM) |
| Cc1cc(C)c(Oc2nc(-c3cc(F)cc(OCC(C)C)c3)ccc2C(=O)NS(=O)(=O)c2cccc(C(=O)O)n2)c(C)c1 [Compound 461, 6-[[6-(3-fluoro-5-isobutoxy-phenyl)-2-(2,4,6-trimethylphenoxy)pyridine-3-carbonyl]sulfamoyl]pyridine-2-carboxylic acid] | ++ (“++” means between 3 uM and 10 uM) |
| Cc1cc(C)c(CN2c3ccccc3C[C@@H]2C(=O)NS(=O)(=O)c2cccc(N)n2)c(C)c1 [Compound 462, (2R)—N-[(6-amino-2-pyridyl)sulfonyl]-1-[(2,4,6-trimethylphenyl)methyl]indoline-2-carboxamide] | +++ (“+++” means <3 uM) |
| Cc1cc(C)c(Oc2nc(-c3ccccc3F)ccc2C(=O)NS(=O)(=O)c2cccc(N)n2)c(C)c1 [Compound 463, N-[(6-amino-2-pyridyl)sulfonyl]-6-(2-fluorophenyl)-2-(2,4,6-trimethylphenoxy)pyridine-3-carboxamide] | ++ (“++” means between 3 uM and 10 uM) |
| CC(C)Oc1ccc(-c2ccc(C(=O)NS(=O)(=O)c3cccc(N)n3)c(N3CCC(C)C3(C)C)n2)cn1 (centres unmarked) [Compound 464, N-[(6-amino-2-pyridyl)sulfonyl]-6-(6-isopropoxy-3-pyridyl)-2-(2,2,3-trimethylpyrrolidin-1-yl)pyridine-3-carboxamide] | +++ (“+++” means <3 uM) |
| Cc1cc(C)c(Oc2nc(-c3cccc(CN4CCOCC4)c3)ccc2C(=O)NS(=O)(=O)c2cccc(N)n2)c(C)c1 [Compound 465, N-[(6-amino-2-pyridyl)sulfonyl]-6-[3-(morpholinomethyl)phenyl]-2-(2,4,6-trimethylphenoxy)pyridine-3-carboxamide] | ++ (“++” means between 3 uM and 10 uM) |
| CC(C)COc1cc(F)cc(-c2ccc(C(=O)NS(=O)(=O)C3CCNC3=O)c(N3CC(C)CC3(C)C)n2)c1 (centres unmarked) [Compound 466, 6-(3-fluoro-5-isobutoxy-phenyl)-N-(2-oxopyrrolidin-3-yl)sulfonyl-2-(2,2,4-trimethylpyrrolidin-1-yl)pyridine-3-carboxamide] | +++ (“+++” means <3 uM) |
| Cc1cc(C)c(CN2C[C@H](c3ccccc3)C[C@@H]2C(=O)NS(=O)(=O)c2cccc(N)n2)c(C)c1 [Compound 467, (2R,4S)—N-[(6-amino-2-pyridyl)sulfonyl]-4-phenyl-1-[(2,4,6-trimethylphenyl)methyl]pyrrolidine-2-carboxamide] | ++ (“++” means between 3 uM and 10 uM) |
| Cc1cc(C)c(Oc2nc(C(C)(C)C)ccc2C(=O)NS(=O)(=O)c2cccc(N(C)C)n2)c(C)c1 [Compound 468, 6-tert-butyl-N-[[6-(dimethylamino)-2-pyridyl]sulfonyl]-2-(2,4,6-trimethylphenoxy)pyridine-3-carboxamide] | +++ (“+++” means <3 uM) |
| CCCn1cc(-c2ccc(C(=O)NS(=O)(=O)c3cccc(N)n3)c(Oc3c(C)cc(C)cc3C)n2)cn1 [Compound 469, N-[(6-amino-2-pyridyl)sulfonyl]-6-(1-propylpyrazol-4-yl)-2-(2,4,6-trimethylphenoxy)pyridine-3-carboxamide] | ++ (“++” means between 3 uM and 10 uM) |
| COc1ccc(C)c(-c2ccc(C(=O)NS(=O)(=O)c3cccc(N)n3)c(N3CC(C)CC3(C)C)n2)c1 (centres unmarked) [Compound 470, N-[(6-amino-2-pyridyl)sulfonyl]-6-(5-methoxy-2-methyl-phenyl)-2-(2,2,4-trimethylpyrrolidin-1-yl)pyridine-3-carboxamide] | +++ (“+++” means <3 uM) |
| CC(C)COc1ccc(-c2ccc(C(=O)NS(=O)(=O)c3cccc(N)n3)c(N3CC(C)CC3(C)C)n2)cn1 (centres unmarked) [Compound 471, N-[(6-amino-2-pyridyl)sulfonyl]-6-(6-isobutoxy-3-pyridyl)-2-(2,2,4-trimethylpyrrolidin-1-yl)pyridine-3-carboxamide] | +++ (“+++” means <3 uM) |
| Cc1cc(C)c(Cn2nc(C(C)(C)C)cc2C(=O)NS(=O)(=O)c2cccc(Cl)c2)c(C)c1 [Compound 472, 5-tert-butyl-N-(3-chlorophenyl)sulfonyl-2-[(2,4,6-trimethylphenyl)methyl]pyrazole-3-carboxamide] | + (“+” means greater than 10 uM) |
